The source made the active and inactive calls. The calls are words filed in the database; no cut-off is given here.
Tests used:
MV4-11 [1] = experiment: Antiproliferative activity against human MV4-11 cells incubated for 48 hrs by CCK-8 assay; assay type: functional, cell-based; conditions: MV4-11, 48 h
[2] = biological target: Mast/stem cell growth factor receptor Kit (Homo sapiens) (UniProt P10721); experiment: Inhibition of KIT in human MV4-11 cells assessed as reduction in PI3K phosphorylation at 5 to 25 nM after 24 hrs by Western blot analysis; assay type: cell-based; conditions: dose 5-25 nM
Mast/stem cell growth factor receptor Kit (Homo sapiens), sequence (P10721 whole entry): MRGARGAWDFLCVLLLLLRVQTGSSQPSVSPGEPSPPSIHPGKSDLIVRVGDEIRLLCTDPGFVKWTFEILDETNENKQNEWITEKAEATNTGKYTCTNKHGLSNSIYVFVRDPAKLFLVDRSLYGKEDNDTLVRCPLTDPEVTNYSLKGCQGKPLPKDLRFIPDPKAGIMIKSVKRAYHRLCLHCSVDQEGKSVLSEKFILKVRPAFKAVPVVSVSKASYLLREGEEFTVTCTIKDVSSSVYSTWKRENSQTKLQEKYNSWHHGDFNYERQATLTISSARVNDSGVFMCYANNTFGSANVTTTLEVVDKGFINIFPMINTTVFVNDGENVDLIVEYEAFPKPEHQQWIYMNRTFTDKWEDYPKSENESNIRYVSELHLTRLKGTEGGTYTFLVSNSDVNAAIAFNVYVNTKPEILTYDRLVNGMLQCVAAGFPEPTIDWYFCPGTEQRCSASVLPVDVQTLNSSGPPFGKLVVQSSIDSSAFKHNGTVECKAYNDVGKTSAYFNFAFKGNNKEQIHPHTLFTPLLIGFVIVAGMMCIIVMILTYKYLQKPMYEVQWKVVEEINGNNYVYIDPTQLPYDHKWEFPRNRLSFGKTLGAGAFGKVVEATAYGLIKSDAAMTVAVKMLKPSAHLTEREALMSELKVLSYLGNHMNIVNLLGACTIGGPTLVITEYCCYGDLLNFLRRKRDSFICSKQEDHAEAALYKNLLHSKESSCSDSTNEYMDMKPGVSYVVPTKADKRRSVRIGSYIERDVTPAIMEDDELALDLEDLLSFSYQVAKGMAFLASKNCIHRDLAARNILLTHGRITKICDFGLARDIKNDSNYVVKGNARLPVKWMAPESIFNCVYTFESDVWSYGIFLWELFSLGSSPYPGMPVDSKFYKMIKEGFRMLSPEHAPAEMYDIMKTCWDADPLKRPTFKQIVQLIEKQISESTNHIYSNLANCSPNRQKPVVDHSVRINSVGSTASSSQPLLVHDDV

[3] = biological target: Receptor-type tyrosine-protein kinase FLT3 (Homo sapiens) (UniProt P36888); experiment: Inhibition of FLT3 in human MV4-11 cells assessed as reduction in AKT phosphorylation at 15 nM by Western blot analysis; assay type: cell-based; conditions: time 0-12 hrs, TDE = time-dependent effect
Receptor-type tyrosine-protein kinase FLT3 (Homo sapiens), sequence (P36888 whole entry): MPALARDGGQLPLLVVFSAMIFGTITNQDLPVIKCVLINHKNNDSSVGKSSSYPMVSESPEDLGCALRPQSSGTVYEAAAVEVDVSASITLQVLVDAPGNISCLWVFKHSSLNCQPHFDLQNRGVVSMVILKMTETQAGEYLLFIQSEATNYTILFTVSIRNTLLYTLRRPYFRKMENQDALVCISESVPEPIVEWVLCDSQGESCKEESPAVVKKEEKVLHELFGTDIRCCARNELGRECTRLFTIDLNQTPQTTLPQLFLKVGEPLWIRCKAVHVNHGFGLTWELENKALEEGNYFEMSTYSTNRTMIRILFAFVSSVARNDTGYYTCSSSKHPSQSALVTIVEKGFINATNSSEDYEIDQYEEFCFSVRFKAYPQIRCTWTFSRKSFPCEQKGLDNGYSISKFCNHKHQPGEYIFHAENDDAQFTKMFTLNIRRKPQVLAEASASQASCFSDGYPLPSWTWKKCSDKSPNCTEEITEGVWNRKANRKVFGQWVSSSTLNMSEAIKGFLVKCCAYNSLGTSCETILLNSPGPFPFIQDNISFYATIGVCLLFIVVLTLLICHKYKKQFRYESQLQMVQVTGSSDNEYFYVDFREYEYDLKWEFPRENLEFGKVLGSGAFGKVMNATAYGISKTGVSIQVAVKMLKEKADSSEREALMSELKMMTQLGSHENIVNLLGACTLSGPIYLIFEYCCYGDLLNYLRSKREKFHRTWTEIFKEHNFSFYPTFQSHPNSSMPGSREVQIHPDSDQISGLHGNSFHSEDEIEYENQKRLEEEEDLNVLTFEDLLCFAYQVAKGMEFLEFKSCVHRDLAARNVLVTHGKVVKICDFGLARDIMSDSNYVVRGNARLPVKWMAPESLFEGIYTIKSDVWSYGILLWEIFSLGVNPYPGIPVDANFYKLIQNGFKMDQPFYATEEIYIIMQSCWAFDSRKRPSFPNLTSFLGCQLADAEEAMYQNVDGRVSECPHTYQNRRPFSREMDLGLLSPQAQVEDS

[4] = biological target: Mitogen-activated protein kinase 1 (Homo sapiens) (UniProt P28482); experiment: Inhibition of MAPK2 (unknown origin) at 1000 nM relative to control
[5] = biological target: Proto-oncogene tyrosine-protein kinase receptor Ret (Homo sapiens) (UniProt P07949); conditions: dose 1000.0 nM
Description: Inhibition of RET (unknown origin) at 1000 nM relative to control

[6] = tested on: Receptor-type tyrosine-protein kinase FLT3 (Homo sapiens), P36888 [UNDEFINED MUTATION]; experiment: Induction of FLT3-ITD degradation in human MV4-11 cells after 24 hrs by Western blot analysis; assay type: cell-based
Receptor-type tyrosine-protein kinase FLT3 (Homo sapiens), P36888 [UNDEFINED MUTATION], sequence (P36888 whole entry, looked up, change not shown): as the sequence (P36888 whole entry) above

[7] = biological target: Receptor-type tyrosine-protein kinase FLT3 (Homo sapiens) (UniProt P36888); experiment: Inhibition of FLT3 in human MOLM-13 cells assessed as reduction in AKT phosphorylation at 15 nM by Western blot analysis; assay type: cell-based; conditions: time 0-12 hrs, TDE = time-dependent effect
[8] = biological target: Serine/threonine-protein kinase Chk2 (Homo sapiens) (UniProt O96017); experiment: Inhibition of CHK2 (unknown origin) at 1000 nM relative to control
[9] = biological target: Mast/stem cell growth factor receptor Kit (Homo sapiens) (UniProt P10721); experiment: Induction of KIT degradation in human MOLM-13 cells at 0 to 25 nM after 24 hrs by Western blot analysis; assay type: cell-based; conditions: dose 0-25 nM
MV4-11 [10] = experiment: Induction of apoptosis in human MV4-11 cells assessed as downregulation of Mcl-1 level at 15 nM measured upto 12 hrs by Western blot analysis; assay type: functional, cell-based; conditions: time hrs <=12
MV4-11 [11] = experiment: Antitumor activity against human MV4-11 cells xenografted in NOD/SCID mouse assessed as reduction in CD45-positive cells in bone marrow at 3 mg/kg/day, iv administered for 12 days by flow cytometry analysis (reference value: 32.23 %); assay type: functional; set-up: scale not given: the % may be the effect or the level left; conditions: time 12 day
[12] = tested on: Receptor-type tyrosine-protein kinase FLT3 (Homo sapiens), P36888 [UNDEFINED MUTATION]; experiment: Induction of FLT3-ITD degradation in human MV4-11 cells at 20 nM pretreated with MG132 for 2 hrs followed compound addition for 6 hrs by Western blot analysis; assay type: cell-based
[13] = biological target: Receptor-type tyrosine-protein kinase FLT3 (Homo sapiens) (UniProt P36888); experiment: Inhibition of FLT3 in human MOLM-13 cells assessed as reduction in FLT3 phosphorylation at 15 nM by Western blot analysis; assay type: cell-based; conditions: time 0-12 hrs, TDE = time-dependent effect
[14] = biological target: Homeodomain-interacting protein kinase 1 (Homo sapiens) (UniProt Q86Z02); conditions: dose 1000.0 nM
Description: Inhibition of HIPK1 (unknown origin) at 1000 nM relative to control

[15] = biological target: Hepatocyte growth factor receptor (Homo sapiens) (UniProt P08581); experiment: Inhibition of C-MET (unknown origin) at 1000 nM relative to control
Hepatocyte growth factor receptor (Homo sapiens), sequence (P08581 whole entry): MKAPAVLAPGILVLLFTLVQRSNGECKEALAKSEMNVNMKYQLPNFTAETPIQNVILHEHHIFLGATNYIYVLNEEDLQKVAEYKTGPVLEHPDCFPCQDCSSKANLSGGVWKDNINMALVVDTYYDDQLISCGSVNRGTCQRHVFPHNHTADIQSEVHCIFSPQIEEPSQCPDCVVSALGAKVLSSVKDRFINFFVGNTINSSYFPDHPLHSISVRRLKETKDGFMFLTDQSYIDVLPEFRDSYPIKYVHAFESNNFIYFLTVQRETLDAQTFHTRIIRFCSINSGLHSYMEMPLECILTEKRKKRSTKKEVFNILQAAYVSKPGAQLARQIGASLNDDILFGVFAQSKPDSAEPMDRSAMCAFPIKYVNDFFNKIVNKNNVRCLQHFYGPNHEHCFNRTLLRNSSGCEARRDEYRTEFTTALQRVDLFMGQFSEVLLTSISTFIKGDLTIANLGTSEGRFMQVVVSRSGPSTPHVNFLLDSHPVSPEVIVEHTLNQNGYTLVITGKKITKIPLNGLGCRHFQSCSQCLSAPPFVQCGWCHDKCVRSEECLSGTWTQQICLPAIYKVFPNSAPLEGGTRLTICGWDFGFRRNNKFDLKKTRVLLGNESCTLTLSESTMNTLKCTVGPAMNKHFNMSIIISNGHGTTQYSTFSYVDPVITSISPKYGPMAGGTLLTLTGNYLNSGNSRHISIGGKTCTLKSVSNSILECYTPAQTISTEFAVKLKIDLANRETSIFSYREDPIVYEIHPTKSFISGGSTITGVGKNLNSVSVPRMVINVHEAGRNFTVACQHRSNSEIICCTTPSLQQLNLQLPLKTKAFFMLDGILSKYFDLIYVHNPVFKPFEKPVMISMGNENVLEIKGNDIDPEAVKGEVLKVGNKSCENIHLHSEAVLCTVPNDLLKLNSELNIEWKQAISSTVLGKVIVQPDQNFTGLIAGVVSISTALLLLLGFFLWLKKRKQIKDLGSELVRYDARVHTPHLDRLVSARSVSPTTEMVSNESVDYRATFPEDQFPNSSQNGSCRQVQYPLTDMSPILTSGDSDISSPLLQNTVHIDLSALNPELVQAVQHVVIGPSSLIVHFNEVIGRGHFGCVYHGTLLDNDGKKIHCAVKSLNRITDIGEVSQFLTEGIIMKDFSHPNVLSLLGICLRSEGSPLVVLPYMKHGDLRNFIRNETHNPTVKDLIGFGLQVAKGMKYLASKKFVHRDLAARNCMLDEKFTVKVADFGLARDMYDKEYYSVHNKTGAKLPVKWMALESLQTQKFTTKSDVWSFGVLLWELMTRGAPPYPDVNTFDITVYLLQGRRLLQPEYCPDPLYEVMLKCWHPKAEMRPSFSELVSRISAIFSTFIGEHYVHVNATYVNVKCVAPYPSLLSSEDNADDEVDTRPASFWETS

[16] = biological target: Platelet-derived growth factor receptor alpha (Homo sapiens) (UniProt P16234); conditions: dose 1000.0 nM
Platelet-derived growth factor receptor alpha (Homo sapiens), sequence (P16234 whole entry): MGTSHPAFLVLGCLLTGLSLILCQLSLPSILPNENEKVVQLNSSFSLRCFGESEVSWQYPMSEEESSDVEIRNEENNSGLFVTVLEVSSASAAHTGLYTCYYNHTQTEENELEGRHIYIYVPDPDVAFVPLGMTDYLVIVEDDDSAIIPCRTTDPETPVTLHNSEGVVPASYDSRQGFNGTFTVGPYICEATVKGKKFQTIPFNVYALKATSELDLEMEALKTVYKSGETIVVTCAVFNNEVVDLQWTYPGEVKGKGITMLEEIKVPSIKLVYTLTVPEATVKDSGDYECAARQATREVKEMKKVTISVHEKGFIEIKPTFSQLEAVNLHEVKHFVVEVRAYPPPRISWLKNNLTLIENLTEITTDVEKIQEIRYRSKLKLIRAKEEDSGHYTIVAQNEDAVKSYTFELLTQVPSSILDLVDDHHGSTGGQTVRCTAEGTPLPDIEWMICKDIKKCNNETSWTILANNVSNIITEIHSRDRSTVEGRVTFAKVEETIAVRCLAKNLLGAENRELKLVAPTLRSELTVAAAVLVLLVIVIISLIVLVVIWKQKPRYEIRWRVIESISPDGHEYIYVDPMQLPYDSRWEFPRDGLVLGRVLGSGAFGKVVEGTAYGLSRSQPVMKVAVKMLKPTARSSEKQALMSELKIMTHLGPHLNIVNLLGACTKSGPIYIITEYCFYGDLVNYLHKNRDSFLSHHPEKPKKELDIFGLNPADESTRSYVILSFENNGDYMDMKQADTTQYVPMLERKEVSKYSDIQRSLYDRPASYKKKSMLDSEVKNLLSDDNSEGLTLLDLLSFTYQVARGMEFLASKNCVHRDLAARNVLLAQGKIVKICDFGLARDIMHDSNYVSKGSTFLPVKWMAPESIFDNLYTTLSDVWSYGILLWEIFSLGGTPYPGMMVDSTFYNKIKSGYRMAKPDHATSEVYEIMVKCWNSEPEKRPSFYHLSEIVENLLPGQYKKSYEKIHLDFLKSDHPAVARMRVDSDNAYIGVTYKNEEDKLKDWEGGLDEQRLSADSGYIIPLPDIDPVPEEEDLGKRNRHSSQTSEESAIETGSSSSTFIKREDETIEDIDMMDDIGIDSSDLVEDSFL
Description: Inhibition of PDGFRalpha (unknown origin) at 1000 nM relative to control

[17] = biological target: Serine/threonine-protein kinase TBK1 (Homo sapiens) (UniProt Q9UHD2); experiment: Inhibition of TBK1 (unknown origin) at 1000 nM relative to control
[18] = biological target: Aurora kinase A (Homo sapiens) (UniProt O14965); experiment: Inhibition of AURORA-A (unknown origin) at 1000 nM relative to control
MOLM-13 [19] = experiment: Antiproliferative activity against human MOLM-13 cells incubated for 48 hrs by CCK-8 assay; assay type: functional, cell-based; conditions: MOLM-13, 48 h
[20] = biological target: Receptor-type tyrosine-protein kinase FLT3 (Homo sapiens) (UniProt P36888); experiment: Inhibition of FLT3 in human MOLM-13 cells assessed as reduction in STAT5 phosphorylation at 15 nM by Western blot analysis; assay type: cell-based; conditions: time 0-12 hrs, TDE = time-dependent effect
[21] = biological target: Serine/threonine-protein kinase MARK1 (Homo sapiens) (UniProt Q9P0L2); experiment: Inhibition of MARK1 (unknown origin) at 1000 nM relative to control
[22] = biological target: Receptor-type tyrosine-protein kinase FLT3 (Homo sapiens) (UniProt P36888); experiment: Inhibition of FLT3 in human MOLM-13 cells assessed as reduction in ERK phosphorylation at 15 nM by Western blot analysis; assay type: cell-based; conditions: time 0-12 hrs, TDE = time-dependent effect
[23] = biological target: Platelet-derived growth factor receptor beta (Homo sapiens) (UniProt P09619); experiment: Induction of PDGFR degradation in human MV4-11 cells at 0 to 25 nM after 24 hrs by Western blot analysis; assay type: cell-based; conditions: dose 0-25 nM
[24] = biological target: Fibroblast growth factor receptor 2 (Homo sapiens) (UniProt P21802); conditions: dose 1000.0 nM
Description: Inhibition of FGFR2 (unknown origin) at 1000 nM relative to control

[25] = biological target: Discoidin domain-containing receptor 2 (Homo sapiens) (UniProt Q16832); experiment: Inhibition of DDR2 (unknown origin) at 1000 nM relative to control
[26] = biological target: Receptor-type tyrosine-protein kinase FLT3 (Homo sapiens) (UniProt P36888); experiment: Inhibition of FLT3 in human MV4-11 cells assessed as reduction in ERK phosphorylation at 15 nM by Western blot analysis; assay type: cell-based; conditions: time 0-12 hrs, TDE = time-dependent effect
[27] = biological target: Proto-oncogene tyrosine-protein kinase Src (Homo sapiens) (UniProt P12931); experiment: Inhibition of SRC (unknown origin) at 1000 nM relative to control
MOLM-13 [28] = experiment: Reduction in intracellular ROS level in human MOLM-13 cells measured after 12 hrs by DCFH-DA probe based flow cytometry; assay type: functional, cell-based; conditions: dose 25-200 nM
MOLM-13 [29] = experiment: Induction of apoptosis in human MOLM-13 cells assessed as downregulation of Mcl-1 level at 15 nM measured upto 12 hrs by Western blot analysis; assay type: functional, cell-based; conditions: time hrs <=12
[30] = biological target: Tyrosine-protein kinase Lck (Homo sapiens) (UniProt P06239); conditions: dose 1000.0 nM
Description: Inhibition of LCK (unknown origin) at 1000 nM relative to control

[31] = Toxicity in NOD/SCID mouse xenografted with human MV4-11 cells assessed as effect on body weight at 3 mg/kg/day, iv administered for 12 hrs; assay type: organism-based; conditions: in vivo
[32] = biological target: Mast/stem cell growth factor receptor Kit (Homo sapiens) (UniProt P10721); experiment: Inhibition of KIT (unknown origin) at 1000 nM relative to control
[33] = biological target: Tyrosine-protein kinase ITK/TSK (Homo sapiens) (UniProt Q08881); conditions: dose 1000.0 nM
Tyrosine-protein kinase ITK/TSK (Homo sapiens), sequence (Q08881 whole entry): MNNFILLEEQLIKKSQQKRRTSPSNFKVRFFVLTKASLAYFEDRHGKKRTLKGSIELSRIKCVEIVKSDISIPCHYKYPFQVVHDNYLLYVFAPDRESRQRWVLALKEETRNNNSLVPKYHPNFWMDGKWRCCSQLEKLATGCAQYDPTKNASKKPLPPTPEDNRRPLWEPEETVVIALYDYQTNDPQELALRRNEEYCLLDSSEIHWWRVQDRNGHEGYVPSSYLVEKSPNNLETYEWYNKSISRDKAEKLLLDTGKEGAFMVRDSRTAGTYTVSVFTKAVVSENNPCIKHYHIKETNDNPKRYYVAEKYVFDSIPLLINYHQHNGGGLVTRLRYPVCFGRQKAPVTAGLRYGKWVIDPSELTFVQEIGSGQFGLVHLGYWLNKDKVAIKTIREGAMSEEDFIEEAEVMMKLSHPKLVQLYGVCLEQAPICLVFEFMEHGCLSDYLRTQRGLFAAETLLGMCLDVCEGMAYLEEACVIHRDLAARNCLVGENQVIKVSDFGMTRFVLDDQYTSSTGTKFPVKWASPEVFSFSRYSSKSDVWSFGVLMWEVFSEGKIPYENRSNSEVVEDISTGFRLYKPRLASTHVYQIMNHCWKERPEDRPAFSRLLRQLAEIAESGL
Description: Inhibition of ITK (unknown origin) at 1000 nM relative to control

[34] = biological target: Serine/threonine-protein kinase 4 (Homo sapiens) (UniProt Q13043); experiment: Inhibition of MST1 (unknown origin) at 1000 nM relative to control
[35] = tested on: Receptor-type tyrosine-protein kinase FLT3 (Homo sapiens), P36888 [UNDEFINED MUTATION]; conditions: dose 1000.0 nM
Description: Inhibition of FLT3 ITD mutant (unknown origin) at 1000 nM relative to control

[36] = tested on: Receptor-type tyrosine-protein kinase FLT3 (Homo sapiens), P36888 [UNDEFINED MUTATION]; experiment: Induction of FLT3-ITD degradation in human MOLM-13 cells after 24 hrs by Western blot analysis; assay type: cell-based
[37] = biological target: CDK7/Cyclin H/MNAT1 (Homo sapiens) (UniProt P51946+P50613+P51948); experiment: Inhibition of CDK7/cyclinH/MAT1 (unknown origin) at 1000 nM relative to control; assay type: protein-complex assay
[38] = biological target: Tyrosine-protein kinase ABL1 (Homo sapiens) (UniProt P00519); conditions: dose 1000.0 nM
Description: Inhibition of ABL (unknown origin) at 1000 nM relative to control

[39] = biological target: Receptor-type tyrosine-protein kinase FLT3 (Homo sapiens) (UniProt P36888); experiment: Inhibition of FLT3 in human MV4-11 cells assessed as reduction in STAT5 phosphorylation at 15 nM by Western blot analysis; assay type: cell-based; conditions: time 0-12 hrs, TDE = time-dependent effect

## Nc1c(-c2nc3cc(N4CCN(C(=O)CCCCCNc5cccc6c5C(=O)N(C5CCC(=O)NC5=O)C6=O)CC4)ccc3[nH]2)c(=O)[nH]c2cccc(F)c12 (centres undefined)
MV4-11 [1]
  IC50: 9.2 nM
[2]
  inhibition: Active
[3]
  inhibition: Tde
[4]
  inhibition: 54%
[5]
  inhibition: 39%
[6]
  Activity: Dose-Dependent Effect
[7]
  inhibition: Tde
[8]
  inhibition: 0%
[9]
  Activity: Active
MV4-11 [10]
  Activity: Active
MV4-11 [11]
  Activity: 5.19%
[12]
  Activity: inactive
[13]
  inhibition: Tde
[14]
  inhibition: 5%
[15]
  inhibition: 15%
[16]
  inhibition: 82%
[17]
  inhibition: 22%
[18]
  inhibition: 17%
MOLM-13 [19]
  IC50: 9.5 nM
[20]
  inhibition: Tde
[21]
  inhibition: 17%
[22]
  inhibition: Tde
[23]
  Activity: Active
[24]
  inhibition: 34%
[25]
  inhibition: 17%
[26]
  inhibition: Tde
[27]
  inhibition: 37%
MOLM-13 [28]
  Activity: Dose-Dependent Effect
MOLM-13 [29]
  Activity: Active
[30]
  inhibition: 16%
[31]
  Activity: Non-Toxic
[32]
  inhibition: 83%
[33]
  inhibition: 42%
[34]
  inhibition: 32%
[35]
  inhibition: 98%
[36]
  Activity: Dose-Dependent Effect
[37]
  inhibition: 0%
[38]
  inhibition: 7%
[39]
  inhibition: Tde

Source: ChEMBL document CHEMBL4840352 (J Med Chem, 2021)
